Source: patent US4086417A, “Cytidine nucleotide derivatives” (Asahi Kasei Kogyo Kabushiki Kaisha, priority 1974, dated 1978)
Structures can show the parent of a compound that is named as a salt. Where two headings read alike, the source gives them in different places.

Assays:
leukemia L-1210 = experiment: Antitumour activity in mice inoculated intraperitoneally with leukemia L-1210 (survival, T/C); format: in vivo, CDF-1 male mice; details: for response vs control in vivo at 100 mg/kg / response vs control in vivo at 200 mg/kg / response vs control in vivo at 400 mg/kg: Mus musculus, L1210, ip, directly after injection of L-1210, after 2 days and after 6 days; for response vs control in vivo at 100 mg/kg: 100 mg/kg i.p.; for response vs control in vivo at 200 mg/kg: 200 mg/kg i.p.; for response vs control in vivo at 400 mg/kg: 400 mg/kg i.p.
Description: The antitumour activity for mice of the test material was evaluated by means of survival rate comparison, T/C (%), that is, 100 times the mean survival period of the groups injected with the test material divided by the mean survival period of the comparison groups which were not injected with the test material.
Further, for comparison, the following materials were also subjected to the same biological test: […]

[1] = Solubility test: solubility in water; format: physicochemical
Description: In the aforesaid examples, the products were obtained as white solids.
In Table 1, -Ara-C means "-1-β-D-arabinofuranosylcytosine" and -5'-Pna and -5'-PNa2 mean "-1-β-D-arabinofuranosylcytosine-5'-phosphate monosodium salt" and "-1-β-D-arabinofuranosylcytosine-5'-phosphate disodium salt," respectively.

Solubility in water [1]	Solubility in water ([1]; disodium salt)	SMILES	response vs control in vivo at 100 mg/kg (leukemia L-1210)	response vs control in vivo at 200 mg/kg (leukemia L-1210)	response vs control in vivo at 400 mg/kg (leukemia L-1210)	Antileukemial effect on mice (in words) (leukemia L-1210; L-1210 in mice, conclusions in words)
–	–	CCCCCCCCCCCCCCCCCCC(=O)Nc1ccn([C@@H]2O[C@H](COP(=O)(O)O)[C@@H](O)[C@@H]2O)c(=O)n1 [N^4 -Nonadecanoyl-5'-PNa, N^4-nonadecanoyl-1-β-D-arabinofuranosylcytosine-5'-phosphate monosodium]	385%	232%	102%	–
–	–	CCCCCCCCCCCCCCCCCCC(=O)Nc1ccn([C@@H]2O[C@H](CO)[C@@H](O)[C@@H]2O)c(=O)n1 [N^4 -Nonadecanoyl-Ara-C]	382%	216%	134%	–
> 250 mg/mL	–	CCCCCCCC/C=C\CCCCCCCC(=O)Nc1ccn([C@@H]2O[C@H](COP(=O)(O)O)[C@@H](O)[C@@H]2O)c(=O)n1 [N^4 -Oleoyl-5'-PNa2]	–	–	–	–
> 50 mg/mL	–	CCCCCCCC/C=C\CCCCCCCC(=O)Nc1ccn([C@@H]2O[C@H](COP(=O)(O)O)[C@@H](O)[C@@H]2O)c(=O)n1 [N^4 -Oleoyl-5'-PNa, N^4-oleoyl-1-β-D-arabinofuranosylcytosine-5'-phosphate monosodium]	270%	156%	103%	–
> 150 mg/mL	–	CCCCCCCCCCCCCCCC(=O)Nc1ccn([C@@H]2O[C@H](COP(=O)(O)O)[C@@H](O)[C@@H]2O)c(=O)n1 [N^4 -Palmitoyl-5'-PNa2]	–	–	–	–
–	–	CCCCCCCCCCCCCCC(=O)Nc1ccn([C@@H]2O[C@H](COP(=O)(O)O)[C@@H](O)[C@@H]2O)c(=O)n1 [N^4 -Pentadecanoyl-5'-PNa]	> 302%	> 287%	86%	–
–	–	CCCCCCCCCCCCCCC(=O)Nc1ccn([C@@H]2O[C@H](CO)[C@@H](O)[C@@H]2O)c(=O)n1 [N^4 -Pentadecanoyl-Ara-C]	302%	287%	91%	–
–	–	CCC(=O)Nc1ccn([C@@H]2O[C@H](COP(=O)(O)O)[C@@H](O)[C@@H]2O)c(=O)n1 [N^4 -Propionyl-5'-PNa]	99%	100%	101%	–
–	–	CCC(=O)Nc1ccn([C@@H]2O[C@H](CO)[C@@H](O)[C@@H]2O)c(=O)n1 [N^4 -Propionyl-Ara-C]	131%	131%	135%	–
–	> 50 mg/mL	CCCCCCCCCCCCCCCCCC(=O)Nc1ccn([C@@H]2O[C@H](COP(=O)(O)O)[C@@H](O)[C@@H]2O)c(=O)n1 [N^4 -Stearoyl-5'-PNa2, N^4-stearoyl-1-β-D-arabinofuranosylcytosine-5'-phosphate disodium salt]	–	–	–	–
–	–	CCCCC(=O)Nc1ccn([C@@H]2O[C@H](COP(=O)(O)O)[C@@H](O)[C@@H]2O)c(=O)n1 [N^4 -Valeryl-5'-PNa]	101%	99%	101%	–
–	–	CCCCC(=O)Nc1ccn([C@@H]2O[C@H](CO)[C@@H](O)[C@@H]2O)c(=O)n1 [N^4 -Valeryl-Ara-C]	133%	171%	191%	–
–	–	CCCCCCCCCCCCCCCCCC(=O)Nc1ccn([C@@H]2O[C@H](COP(=O)(O)O)[C@@H](O)[C@@H]2O)c(=O)n1 [N^4-stearoyl-1-β-D-arabinofuranosylcytosine-5'-phosphate]	–	–	–	had the highest antileukemial effect on mice
–	–	CCCCCCCCCCCCCCCCCC(=O)Nc1ccn([C@@H]2O[C@H](CO)[C@@H](OP(=O)(O)O)[C@@H]2OP(=O)(O)O)c(=O)n1 [N^4-stearoyl-Ara-C-2',3'-(PNa)2]	184%	119%	103%	–
–	–	CCCCCCCCCCCCCCCCCC(=O)Nc1ccn([C@@H]2O[C@H](CO)[C@@H](O)[C@@H]2OP(=O)(O)O)c(=O)n1 [N^4-stearoyl-Ara-C-2'-PNa, N^4-stearoyl-1-β-D-arabinofuranosylcytosine-2'-phosphate monosodium salt]	228%	146%	121%	–
–	–	CCCCCCCCCCCCCCCCCC(=O)Nc1ccn([C@@H]2O[C@H](COP(=O)(O)O)[C@@H](OP(=O)(O)O)[C@@H]2O)c(=O)n1 [N^4-stearoyl-Ara-C-3',5'-(PNa)2]	215%	138%	107%	–
–	–	CCCCCCCCCCCCCCCCCC(=O)Nc1ccn([C@@H]2O[C@H](CO)[C@@H](OP(=O)(O)O)[C@@H]2O)c(=O)n1 [N^4-stearoyl-Ara-C-3'-PNa]	286%	219%	112%	–
